Laboratory results reported in US9290511B2, “Thieno-pyrimidines, useful as potassium channel inhibitors” (XENTION LIMITED, priority 2011, dated 2016).

target: T1, Kir3.1/3.4 (Rattus norvegicus, UniProt P48548+P63251); test: Kir3.1/3.4 Q-patch Method (automated patch clamp, Sophion Q-patch); format: cell-based; conditions: HEK293 cells stably-expressing Kir3.1/3.4; current at -120 mV; QPatch-16 or QPatch-48
T1 construct: expressed in transfected cells
T1 sequence (P63251 1-501): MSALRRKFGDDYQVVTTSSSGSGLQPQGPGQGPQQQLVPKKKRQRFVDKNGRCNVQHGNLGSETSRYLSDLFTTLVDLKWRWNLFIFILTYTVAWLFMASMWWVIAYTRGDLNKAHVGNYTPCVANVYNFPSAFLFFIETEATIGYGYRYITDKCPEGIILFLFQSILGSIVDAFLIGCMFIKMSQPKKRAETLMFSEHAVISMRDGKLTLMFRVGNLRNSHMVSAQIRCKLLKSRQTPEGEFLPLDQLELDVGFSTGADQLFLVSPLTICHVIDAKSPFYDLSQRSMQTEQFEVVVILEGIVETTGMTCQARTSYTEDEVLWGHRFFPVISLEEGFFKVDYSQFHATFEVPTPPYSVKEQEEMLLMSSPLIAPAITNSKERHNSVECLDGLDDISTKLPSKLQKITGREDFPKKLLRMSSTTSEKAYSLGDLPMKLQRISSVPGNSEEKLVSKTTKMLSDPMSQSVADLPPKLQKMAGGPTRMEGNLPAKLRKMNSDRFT
T1 sequence (P48548 1-419): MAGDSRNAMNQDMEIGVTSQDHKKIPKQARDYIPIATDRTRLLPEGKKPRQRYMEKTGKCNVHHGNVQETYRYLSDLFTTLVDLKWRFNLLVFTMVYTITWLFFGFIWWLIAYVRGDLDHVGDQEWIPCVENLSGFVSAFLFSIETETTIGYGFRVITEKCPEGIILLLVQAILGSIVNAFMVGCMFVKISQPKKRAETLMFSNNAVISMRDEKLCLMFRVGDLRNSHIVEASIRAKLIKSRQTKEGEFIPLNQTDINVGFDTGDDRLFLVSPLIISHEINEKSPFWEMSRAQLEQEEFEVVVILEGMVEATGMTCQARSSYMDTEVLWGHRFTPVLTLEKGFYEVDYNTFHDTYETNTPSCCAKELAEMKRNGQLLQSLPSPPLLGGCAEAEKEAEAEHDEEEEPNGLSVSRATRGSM
Experimental: For automated patch-clamp studies using the Sophion Q-patch, accumulative concentration-responses experiments were conducted to determine compound activity against the ion channel target. Voltage-clamp experiments were performed using HEK293 cells stably-expressing Kir3.1/3.4 using either a QPatch-16 or QPatch-48 (Sophion Bioscience A/S). A voltage waveform (VHold−20 mV, step to 60 mV for 100 ms, ramp to −120 mV over 500 ms, hold at −120 mV for 100 ms before returning to VHold) was repeatedly applied to the cells under voltage-clamp at a frequency of 0.1 Hz to elicit Kir3.1/3.4 currents. Mean current at −120 mV was measured in the absence (Icontrol) and presence of drug (IDrug). Assessment of passive leak was performed by removal of external potassium (IZero). Leak current was subtracted from control and drug recordings. Current inhibition (%) was calculated as {1−[(IDrug−IZero)/(IControl−IZero)]}*100. Data were fitted with a sigmoidal function to yield an IC50 and Hill coefficient. Composition of external experimental buffer was (in mM): 40 NaCl, 100 KCl, 5 CaCl2, 1 MgCl2, 10 HEPES pH 7.4. Composition of internal solution was (in mM). 40 K-gluconate, 60 KF, 20 NaCl, 5 Mg-ATP, 0.9 GTPgS, 20 EGTA, pH 7.2. Compounds were formulated in DMSO and diluted in buffer to give a final drug concentration of between […] and a final DMSO concentration of 0.1-0.3%.

Compared with `COc1ccccc1-c1csc2nc(N3CCNC(=O)C3)nc(N3C4CCC3CC(OC)C4)c12` (stereo not shown) [Example 380, 4-[4-(3-methoxy-8-azabicyclo[3.2.1]octan-8-yl)-5-(2-methoxyphenyl)thieno[2,3-d]pyrimidin-2-yl]piperazin-2-one], `COCC1CC2CCC(C1)N2c1nc(N2CCNC(=O)C2)nc2scc(-c3ccccc3OC)c12` (stereo not shown) [Example 378, 4-[4-[3-(methoxymethyl)-8-azabicyclo[3.2.1]octan-8-yl]-5-(2-methoxyphenyl)thieno[2,3-d]pyrimidin-2-yl]piperazin-2-one] is higher in IC50: less than 500 nM for the first, 500 to 3000 nM for the second. The first is the more potent here.

`COc1ccccc1-c1csc2nc(N3CCCC(C(N)=O)C3)nc(N3C4CCC3COC4)c12` (stereo not shown) [Example 399, 1-[5-(2-methoxyphenyl)-4-(3-oxa-8-azabicyclo[3.2.1]octan-8-yl)thieno[2,3-d]pyrimidin-2-yl]piperidine-3-carboxamide] and `NC(=O)C1CCCN(c2nc(N3C4CCC3COC4)c3c(-c4ccccc4Cl)csc3n2)C1` (stereo not shown) [Example 410, 1-[5-(2-chlorophenyl)-4-(3-oxa-8-azabicyclo[3.2.1]octan-8-yl)thieno[2,3-d]pyrimidin-2-yl]piperidine-3-carboxamide] fall in the same range of IC50: 500 to 3000 nM for the first, 500 to 3000 nM for the second.

Compared with `COc1ccccc1-c1csc2nc(N3C4CCC3CC(OC)C4)nc(N3C4CCC3COC4)c12` (stereo not shown) [Example 397, 8-[2-(3-methoxy-8-azabicyclo[3.2.1]octan-8-yl)-5-(2-methoxyphenyl)thieno[2,3-d]pyrimidin-4-yl]-3-oxa-8-azabicyclo[3.2.1]octane], `COCC1CC2CCC(C1)N2c1nc(N2C3CCC2COC3)c2c(-c3ccccc3OC)csc2n1` (stereo not shown) [Example 395, 8-[2-[3-(methoxymethyl)-8-azabicyclo[3.2.1]octan-8-yl]-5-(2-methoxyphenyl)thieno[2,3-d]pyrimidin-4-yl]-3-oxa-8-azabicyclo[3.2.1]octane] is higher in IC50: less than 500 nM for the first, 500 to 3000 nM for the second.

`COc1ccccc1-c1csc2nc(N3C4CCC3CC(OC)C4)nc(N3C4CCC3CC(OC)C4)c12` (stereo not shown) [Example 407, 2,4-bis(3-methoxy-8-azabicyclo[3.2.1]octan-8-yl)-5-(2-methoxyphenyl)thieno[2,3-d]pyrimidine] and `COc1ccccc1-c1csc2nc(N3C4CCC3CC(CO)C4)nc(N3C4CCC3CC(OC)C4)c12` (stereo not shown) [Example 371, [8-[4-(3-methoxy-8-azabicyclo[3.2.1]octan-8-yl)-5-(2-methoxyphenyl)thieno[2,3-d]pyrimidin-2-yl]-8-azabicyclo[3.2.1]octan-3-yl]methanol] fall in the same range of IC50: 500 to 3000 nM for the first, 500 to 3000 nM for the second.

Compared with `NC(=O)C1CN(c2nc(N3C4CCC3COC4)c3c(-c4ccccc4Cl)csc3n2)CCO1` (stereo not shown) [Example 420, 4-[5-(2-chlorophenyl)-4-(3-oxa-8-azabicyclo[3.2.1]octan-8-yl)thieno[2,3-d]pyrimidin-2-yl]morpholine-2-carboxamide], `NC(=O)C1CCN(c2nc(N3C4CCC3COC4)c3c(-c4ccccc4Cl)csc3n2)C1` (stereo not shown) [Example 422, 1-[5-(2-chlorophenyl)-4-(3-oxa-8-azabicyclo[3.2.1]octan-8-yl)thieno[2,3-d]pyrimidin-2-yl]pyrrolidine-3-carboxamide] is higher in IC50: less than 500 nM for the first, 500 to 3000 nM for the second.

First: COc1ccccc1-c1csc2nc(N3CCOC(C(N)=O)C3)nc(N3C4CCC3CC(OC)C4)c12 (stereo not shown) [Example 409, 4-[4-(3-methoxy-8-azabicyclo[3.2.1]octan-8-yl)-5-(2-methoxyphenyl)thieno[2,3-d]pyrimidin-2-yl]morpholine-2-carboxamide]
Second: COc1ccccc1-c1csc2nc(N3CCC(C(N)=O)C3)nc(N3C4CCC3CC(OC)C4)c12 (stereo not shown) [Example 396, 1-[4-(3-methoxy-8-azabicyclo[3.2.1]octan-8-yl)-5-(2-methoxyphenyl)thieno[2,3-d]pyrimidin-2-yl]pyrrolidine-3-carboxamide]
The IC50 of the first is higher: 500 to 3000 nM for the first, less than 500 nM for the second. The second is the more potent here.

First: COC1CC2CCC(C1)N2c1nc(N2CCNC(=O)C2)nc2scc(-c3ccccc3Cl)c12 (stereo not shown) [Example 391, 4-[5-(2-chlorophenyl)-4-(3-methoxy-8-azabicyclo[3.2.1]octan-8-yl)thieno[2,3-d]pyrimidin-2-yl]piperazin-2-one]
Second: COC1CC2CCC(C1)N2c1nc(N2CCCC(C(N)=O)C2)nc2scc(-c3ccccc3Cl)c12 (stereo not shown) [Example 373, 1-[5-(2-chlorophenyl)-4-(3-methoxy-8-azabicyclo[3.2.1]octan-8-yl)thieno[2,3-d]pyrimidin-2-yl]piperidine-3-carboxamide]
The IC50 of the first is higher: 500 to 3000 nM for the first, less than 500 nM for the second.

`COc1ccccc1-c1csc2nc(N3C4CCC3CC(O)C4)nc(N3CCC(C(N)=O)C3)c12` (stereo not shown) [Example 414, 1-[2-(3-hydroxy-8-azabicyclo[3.2.1]octan-8-yl)-5-(2-methoxyphenyl)thieno[2,3-d]pyrimidin-4-yl]pyrrolidine-3-carboxamide] and `NC(=O)C1CCN(c2nc(N3C4CCC3CC(O)C4)nc3scc(-c4ccccc4Cl)c23)C1` (stereo not shown) [Example 412, 1-[5-(2-chlorophenyl)-2-(3-hydroxy-8-azabicyclo[3.2.1]octan-8-yl)thieno[2,3-d]pyrimidin-4-yl]pyrrolidine-3-carboxamide] fall in the same range of IC50: 500 to 3000 nM for the first, 500 to 3000 nM for the second.

Compared with `COc1ccccc1-c1csc2nc(N3CCC(O)C3)nc(N3C4CCC3COC4)c12` (stereo not shown) [Example 404, 1-[5-(2-methoxyphenyl)-4-(3-oxa-8-azabicyclo[3.2.1]octan-8-yl)thieno[2,3-d]pyrimidin-2-yl]pyrrolidin-3-ol], `COc1ccccc1-c1csc2nc(N3C4CCC3CC(O)C4)nc(N3C4CCC3COC4)c12` (stereo not shown) [Example 400, 8-[5-(2-methoxyphenyl)-4-(3-oxa-8-azabicyclo[3.2.1]octan-8-yl)thieno[2,3-d]pyrimidin-2-yl]-8-azabicyclo[3.2.1]octan-3-ol] is higher in IC50: less than 500 nM for the first, 500 to 3000 nM for the second.

First: NC(=O)C1CCN(c2nc(N3C4CCC3COC4)nc3scc(-c4ccccc4Cl)c23)C1 (stereo not shown) [Example 415, 1-[5-(2-chlorophenyl)-2-(3-oxa-8-azabicyclo[3.2.1]octan-8-yl)thieno[2,3-d]pyrimidin-4-yl]pyrrolidine-3-carboxamide]
Second: NC(=O)C1CCCN(c2nc(N3C4CCC3CC(CO)C4)nc3scc(-c4ccccc4Cl)c23)C1 (stereo not shown) [Example 393, 1-[5-(2-chlorophenyl)-2-[3-(hydroxymethyl)-8-azabicyclo[3.2.1]octan-8-yl]thieno[2,3-d]pyrimidin-4-yl]piperidine-3-carboxamide]
The IC50 of the first is higher: 500 to 3000 nM for the first, less than 500 nM for the second.

Compared with `COCC1CC2CCC(C1)N2c1nc(N2C3CCC2CC(O)C3)nc2scc(-c3ccccc3OC)c12` (stereo not shown) [Example 372, 8-[4-[3-(methoxymethyl)-8-azabicyclo[3.2.1]octan-8-yl]-5-(2-methoxyphenyl)thieno[2,3-d]pyrimidin-2-yl]-8-azabicyclo[3.2.1]octan-3-ol], `COC1CC2CCC(C1)N2c1nc(N2C3CCC2CC(O)C3)nc2scc(-c3ccccc3Cl)c12` (stereo not shown) [Example 375, 8-[5-(2-chlorophenyl)-4-(3-methoxy-8-azabicyclo[3.2.1]octan-8-yl)thieno[2,3-d]pyrimidin-2-yl]-8-azabicyclo[3.2.1]octan-3-ol] is higher in IC50: less than 500 nM for the first, 500 to 3000 nM for the second. The first is the more potent here.

Compared with `Clc1ccccc1-c1csc2nc(N3C4CCC3COC4)nc(N3C4CCC3COC4)c12` [Example 423, 8-[5-(2-chlorophenyl)-2-(3-oxa-8-azabicyclo[3.2.1]octan-8-yl)thieno[2,3-d]pyrimidin-4-yl]-3-oxa-8-azabicyclo[3.2.1]octane], `COc1ccccc1-c1csc2nc(N3C4CCC3COC4)nc(N3CCOC(C(N)=O)C3)c12` (stereo not shown) [Example 419, 4-[5-(2-methoxyphenyl)-2-(3-oxa-8-azabicyclo[3.2.1]octan-8-yl)thieno[2,3-d]pyrimidin-4-yl]morpholine-2-carboxamide] is lower in IC50: 500 to 3000 nM for the first, less than 500 nM for the second.

`COc1ncccc1-c1csc2ncnc(N3C4CCC3CC(CNC3CCC3)C4)c12` (stereo not shown) [Example 427, N-[[8-[5-(2-methoxy-3-pyridyl)thieno[2,3-d]pyrimidin-4-yl]-8-azabicyclo[3.2.1]octan-3-yl]methyl]cyclobutanamine] gave an IC50 of less than 500 nM.
